Where two headings read alike, the source gives them in different places.
Experiments:
[1] = Fowden et al., Phytochemistry, 8, 437, 1969; cited from earlier work
[2] = test system: motoneurones of isolated newborn rat spinal cord (NMDA type receptor); conditions: newborn rat spinal cord preparation; from Japanese Patent Application No. 129626/88; cited from earlier work
[3] = test system: motoneurones of isolated newborn rat spinal cord (NMDA type receptor); experiment: depolarizing activity test, isolated newborn rat spinal cord (potential changes in motoneurones recorded from ventral root); conditions: for minimal effective concentration: read-out: Minimum effective concentration; for activity in the presence of 2-APV or Mg++: measured in the presence of 2APV or Mg++; for Minimum effective concentration, relative activity: relative to L-Glu = 1; for type of activity: spinal cord of a rat; for depolarizing activity, times as potent as L-glutamic acid: rat spinal cord, relative to L-glutamic acid
Protocol: The methods used for the electrophysiological experiment in the isolated newborn rat spiral cord were essentially similar to those described by Ohtsuka et al. (Nature, 252, 733-734, 1974). The potential changes generated in the motoneurones induced by L-glutamate analogues, namely, (2R,3S,4S)-α-(carboxycyclopropyl)glycine (1) of this invention and one of the stereoisomers, (2S,3R,4S)-α-(carboxycyclopropyl)-glycine (2) were recorded extracellularly from the ventral root with a suction electrode.

[4] = isolated newborn rat spinal cord, depolarization recorded extracellularly from ventral root

| activity in the presence of 2-APV or Mg++ [3] | SMILES | effects caused [1] | minimal effective concentration [3, 4] [µM] | Minimum effective concentration, relative activity [3] | type of activity [3] | other results |
| --- | --- | --- | --- | --- | --- | --- |
| – | N[C@H](C(=O)O)[C@H]1C[C@H]1C(=O)O [(2S,3S,4R)-α-(carboxycyclopropyl)glycine] | hypoglycemia and amesis | – | – | – | – |
| activity disappeared | N[C@H](C(=O)O)[C@@H]1C[C@@H]1C(=O)O [(2), (2S,3R,4S)-α-(carboxycyclopropyl)glycine] | – | 1 | 100 | potent NMDA-type depolarization | depolarizing activity, times more potent than L-glutamate [2]: about 100 times |
| activity disappears | N[C@@H](C(=O)O)[C@H]1C[C@@H]1C(=O)O [Compound (1), (2R,3S,4S)-α-(carboxycyclopropyl)glycine] | – | 0.3 | 300 | N-methyl-D-aspartic acid (NMDA) like activity | depolarizing activity, times as potent as L-glutamic acid [3]: 300 times; depolarizing activity, times as potent as L-glutamic acid ([3]; listed as (2R,3S,4S)-α-(carboxycyclopropyl)glycine): more than 300 times; depolarizing activity compared with NMDA ([3]; relative to NMDA): much more potent than NMDA; depolarizing activity, times as potent as compound (2) ([3]; relative to compound (2)): 3 times |
| – | N[C@@H](CCC(=O)O)C(=O)O [L-Glu, L-glutamic acid] | – | – | 1 | – | minimal effective concentration ([3]; Rattus norvegicus): 100 µM |
| – | N[C@H](C(=O)O)[C@H]1C[C@@H]1C(=O)O [(2S,3S,4S)-α-(carboxycyclopropyl)glycine] | hypoglycemia and amesis | – | – | – | – |
